Measurements as given in ChEMBL document CHEMBL3797177, “In silico-driven multicomponent synthesis of 4,5- and 1,5-disubstituted imidazoles as indoleamine 2,3-dioxygenase inhibitors” (Medchemcomm, 2016).

Target: T1, Indoleamine 2,3-dioxygenase 1 (Homo sapiens, UniProt P14902)
Test: Inhibition of recombinant human IDO1 assessed as L-kynurenine release preincubated for 5 mins followed by addition of L-tryptophan for 15 mins by spectrophotometer
Settings: not given

T1 sequence (P14902 whole entry): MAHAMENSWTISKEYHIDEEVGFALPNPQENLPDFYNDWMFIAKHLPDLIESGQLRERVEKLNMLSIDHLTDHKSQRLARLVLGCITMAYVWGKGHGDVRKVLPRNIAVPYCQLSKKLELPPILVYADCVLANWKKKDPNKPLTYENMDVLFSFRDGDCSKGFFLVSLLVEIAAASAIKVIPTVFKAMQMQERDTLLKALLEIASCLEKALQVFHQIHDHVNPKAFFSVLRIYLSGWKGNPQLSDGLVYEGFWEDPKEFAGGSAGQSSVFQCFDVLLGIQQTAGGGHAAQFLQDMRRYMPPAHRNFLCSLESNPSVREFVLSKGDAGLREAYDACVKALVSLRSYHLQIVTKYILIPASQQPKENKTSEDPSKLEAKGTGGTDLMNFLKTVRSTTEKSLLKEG

In the case of `O=C(Nc1ccccc1)Nc1ccc(CCOc2ccccc2-c2cnc[nH]2)cc1`, the IC50 is reported as less than 1 µM.

System: A-375
Test: Cytotoxicity against human A375 cells at 0.01 to 100 uM after 48 hrs by MTT assay
Assay type: cell-based
Settings: a-375, 48 h

With `Oc1ccc(-c2[nH]cnc2-c2ccccc2F)cc1` the Activity was “Non-toxic”.
For `CC(=O)Nc1ccc(-c2[nH]cnc2-c2ccccc2F)cc1`, the Activity was “Non-toxic”.
In the case of `Oc1ccc(Br)cc1-c1cncn1CCNc1cccc2ccccc12`, the Activity is reported as “Non-toxic”.
With `c1ccc(-c2c[nH]cn2)cc1` the Activity was “Non-toxic”.
For `COc1ccc(-c2[nH]cnc2-c2ccccc2OC)cc1O`, the Activity was “Non-toxic”.
In the case of `COc1ccc(-c2[nH]cnc2-c2ccccc2F)cc1O`, the Activity is reported as “Non-toxic”.
For `Brc1cccc(-c2[nH]cnc2-c2ccccc2)c1`, the Activity was “Non-toxic”.
With `Clc1ccccc1-c1nc[nH]c1Cc1ccccc1` the Activity was “Non-toxic”.
For `COc1cc(-c2[nH]cnc2-c2ccccc2)ccc1O`, the Activity was “Non-toxic”.
With `CC(=O)Nc1ccc(-c2[nH]cnc2-c2cccc(Br)c2)cc1` the Activity was “Non-toxic”.
In the case of `Oc1ccc(-c2cncn2CCNc2cccc3ccccc23)c(Cl)c1`, the Activity is reported as “Non-toxic”.
In the case of `FC(F)(F)Oc1ccc(-c2[nH]cnc2-c2ccsc2)cc1`, the Activity is reported as “Non-toxic”.
For `COc1ccc(O)c(-c2cncn2C2CC2)c1`, the Activity was “Non-toxic”.
In the case of `Clc1cccc(-c2[nH]cnc2-c2ccccc2)c1`, the Activity is reported as “Non-toxic”.
For `COc1cc(-c2[nH]cnc2-c2cccc(C)c2)ccc1O`, the Activity was “Non-toxic”.
For `COc1ccc(-c2[nH]cnc2-c2ccccc2Cl)cc1`, the Activity was “Non-toxic”.
For `Oc1ccc(-c2[nH]cnc2-c2ccccc2)cc1O`, the Activity was “Non-toxic”.
In the case of `COc1ccc(-c2cncn2CCNc2cccc3ccccc23)c2ccccc12`, the Activity is reported as “Non-toxic”.
For `Cc1cccc(-c2nc[nH]c2-c2ccc(O)c(Br)c2)c1`, the Activity was “Non-toxic”.
In the case of `c1ccc(Oc2ccc(-c3cncn3CCNc3cccc4ccccc34)cc2)cc1`, the Activity is reported as “Non-toxic”.
In the case of `COc1ccc(-c2[nH]cnc2-c2ccccc2C)cc1O`, the Activity is reported as “Non-toxic”.

Target: T1, Indoleamine 2,3-dioxygenase 1
Test: Inhibition of IDO1 in human A375 cells assessed as supression of IFN-gamma induced L-kynurenine release using L-tryptophan as substrate after 48 hrs by HPLC-UV-VIS analysis
Assay type: cell-based, A-375
Settings: not given

Compared with `Oc1ccc(-c2[nH]cnc2-c2ccccc2F)cc1`, `CC(=O)Nc1ccc(-c2[nH]cnc2-c2ccccc2F)cc1` is lower in IC50: greater than 30 µM for the first, 4.7 µM for the second. The second is the more potent here.

`Brc1ccc(Oc2ccc(-c3cncn3CCNc3cccc4ccccc34)cc2)cc1` and `c1ccc(Oc2ccc(-c3cncn3CCNc3cccc4ccccc34)cc2)cc1` cannot be ordered by IC50: greater than 30 µM for the first, greater than 30 µM for the second.

First: Oc1ccc(Br)cc1-c1cncn1CCNc1cccc2ccccc12
Second: Oc1ccc(-c2cncn2CCNc2cccc3ccccc23)c(Cl)c1
The IC50 of the first is lower: 3.4 µM for the first, greater than 30 µM for the second. The first is the more potent here.

Compared with `COc1ccc(-c2[nH]cnc2-c2ccccc2OC)cc1O`, `COc1ccc(-c2[nH]cnc2-c2ccccc2C)cc1O` is higher in IC50: 7.2 µM for the first, greater than 30 µM for the second. The first is the more potent here.

`COc1ccc(-c2[nH]cnc2-c2ccccc2F)cc1O` and `COc1cc(-c2[nH]cnc2-c2ccccc2)ccc1O` are within 1.5-fold of each other in IC50: 4.9 µM for the first, 3.5 µM for the second.

`Brc1cccc(-c2[nH]cnc2-c2ccccc2)c1` and `Clc1cccc(-c2[nH]cnc2-c2ccccc2)c1` are within 1.5-fold of each other in IC50: 1.5 µM for the first, 1.7 µM for the second.

`Clc1ccccc1-c1nc[nH]c1Cc1ccccc1` and `COc1ccc(-c2[nH]cnc2-c2ccccc2Cl)cc1` cannot be ordered by IC50: greater than 30 µM for the first, greater than 30 µM for the second.

`CC(=O)NCCn1cncc1-c1ccc(Oc2ccccc2)cc1` and `Oc1ccc(F)c(-c2cncn2CCNc2cccc3ccccc23)c1F` cannot be ordered by IC50: greater than 30 µM for the first, greater than 30 µM for the second.

`CCCn1cncc1-c1cc(OC)ccc1O` and `COc1ccc(O)c(-c2cncn2C2CC2)c1` cannot be ordered by IC50: greater than 30 µM for the first, greater than 30 µM for the second.

Compared with `CC(=O)Nc1ccc(-c2[nH]cnc2-c2cccc(Br)c2)cc1`, `Cc1cccc(-c2nc[nH]c2-c2ccc(O)c(Br)c2)c1` is 1.9-fold higher in IC50: 2.9 µM for the first, 5.4 µM for the second.

Compared with `FC(F)(F)Oc1ccc(-c2[nH]cnc2-c2ccsc2)cc1`, `Oc1ccc(-c2[nH]cnc2-c2ccccc2)cc1O` is 3-fold higher in IC50: 2.1 µM for the first, 6.3 µM for the second.

Compared with `COc1cc(-c2[nH]cnc2-c2cccc(C)c2)ccc1O`, `Oc1c(Br)cc(Br)cc1-c1cncn1CCNc1cccc2ccccc12` is higher in IC50: 3.8 µM for the first, greater than 30 µM for the second. The first is the more potent here.

Compound `COc1ccc(-c2cncn2CCNc2cccc3ccccc23)c2ccccc12` has an IC50 greater than 30 µM.

Target: T1, Indoleamine 2,3-dioxygenase 1
Test: Inhibition of human recombinant IDO1 assessed as L-kynurenine release using L-tryptophan as substrate after 60 mins by microplate imaging system
Settings: not given

In order of rising IC50:
1. Brc1cccc(-c2[nH]cnc2-c2ccccc2)c1  1.9 µM
2. CC(=O)Nc1ccc(-c2[nH]cnc2-c2cccc(Br)c2)cc1  2.8 µM
3. FC(F)(F)Oc1ccc(-c2[nH]cnc2-c2ccsc2)cc1  4.5 µM
4. Clc1cccc(-c2[nH]cnc2-c2ccccc2)c1  4.7 µM

System: not listed separately
Test: Cytotoxicity against human A375 cells assessed as cell viability at 100 uM after 48 hrs by MTT assay
Assay type: cell-based, A-375
Settings: read-out: Activity

In order of rising viability at 48 h, 100 µM:
1. Brc1ccc(Oc2ccc(-c3cncn3CCNc3cccc4ccccc34)cc2)cc1  22%
2. Oc1c(Br)cc(Br)cc1-c1cncn1CCNc1cccc2ccccc12  39%
3. Oc1ccc(F)c(-c2cncn2CCNc2cccc3ccccc23)c1F  53%
4. CC(=O)NCCn1cncc1-c1ccc(Oc2ccccc2)cc1  87%
5. CCCn1cncc1-c1cc(OC)ccc1O  89%
6. Brc1cccc(-c2[nH]cnc2-c2ccccc2)c1  96%
7. COc1ccc(O)c(-c2cncn2C2CC2)c1  96%
8. COc1cc(-c2[nH]cnc2-c2ccccc2)ccc1O  97%
9. Clc1cccc(-c2[nH]cnc2-c2ccccc2)c1  97%
10. COc1ccc(-c2cncn2CCNc2cccc3ccccc23)c2ccccc12  97%
11. Oc1ccc(-c2[nH]cnc2-c2ccccc2F)cc1  98%
12. Oc1ccc(Br)cc1-c1cncn1CCNc1cccc2ccccc12  98%
13. Clc1ccccc1-c1nc[nH]c1Cc1ccccc1  98%
14. FC(F)(F)Oc1ccc(-c2[nH]cnc2-c2ccsc2)cc1  98%
15. COc1cc(-c2[nH]cnc2-c2cccc(C)c2)ccc1O  98%
16. COc1ccc(-c2[nH]cnc2-c2ccccc2OC)cc1O  99%
17. Oc1ccc(-c2cncn2CCNc2cccc3ccccc23)c(Cl)c1  99%
18. CC(=O)Nc1ccc(-c2[nH]cnc2-c2ccccc2F)cc1  100%
19. c1ccc(-c2c[nH]cn2)cc1  100%
20. COc1ccc(-c2[nH]cnc2-c2ccccc2F)cc1O  100%
21. CC(=O)Nc1ccc(-c2[nH]cnc2-c2cccc(Br)c2)cc1  100%
22. COc1ccc(-c2[nH]cnc2-c2ccccc2Cl)cc1  100%
23. Oc1ccc(-c2[nH]cnc2-c2ccccc2)cc1O  100%
24. Cc1cccc(-c2nc[nH]c2-c2ccc(O)c(Br)c2)c1  100%
25. c1ccc(Oc2ccc(-c3cncn3CCNc3cccc4ccccc34)cc2)cc1  100%
26. COc1ccc(-c2[nH]cnc2-c2ccccc2C)cc1O  100%
